Assay results: the NIST ThermoML archive (doi:10.1021/acs.jced.7b00119)

Columns and labels:
[1] = excess molar enthalpy (molar enthalpy of mixing); xn = mol fraction of the nth substance listed; settings: Liquid, Flow calorimetry
[2] = 353.15 K; Liquid; Closed cell (Static) method

CC(=O)N(C)C [N,N-dimethylethanamide] + CCCCCC
[1]
Settings | excess molar enthalpy [kcal/mol]
363.15 K, 1982 kPa, x2 = 0.0358 | 0.0559
363.15 K, 1982 kPa, x2 = 0.0726 | 0.114
363.15 K, 1982 kPa, x2 = 0.1106 | 0.168
363.15 K, 1982 kPa, x2 = 0.1498 | 0.218
363.15 K, 1982 kPa, x2 = 0.1902 | 0.262
363.15 K, 1982 kPa, x2 = 0.2319 | 0.302
363.15 K, 1982 kPa, x2 = 0.275 | 0.337
363.15 K, 1982 kPa, x2 = 0.3196 | 0.366
363.15 K, 1982 kPa, x2 = 0.3657 | 0.391
363.15 K, 1982 kPa, x2 = 0.4134 | 0.41
363.15 K, 1982 kPa, x2 = 0.4627 | 0.419
363.15 K, 1982 kPa, x2 = 0.5138 | 0.426
363.15 K, 1982 kPa, x2 = 0.5668 | 0.426
363.15 K, 1982 kPa, x2 = 0.6218 | 0.418
363.15 K, 1982 kPa, x2 = 0.6788 | 0.4
363.15 K, 1982 kPa, x2 = 0.7381 | 0.37
363.15 K, 1982 kPa, x2 = 0.7997 | 0.324
363.15 K, 1982 kPa, x2 = 0.8638 | 0.258
363.15 K, 1982 kPa, x2 = 0.9305 | 0.157
413.15 K, 1824 kPa, x2 = 0.0179 | 0.0289
413.15 K, 1824 kPa, x2 = 0.0361 | 0.059
413.15 K, 1824 kPa, x2 = 0.0733 | 0.117
413.15 K, 1824 kPa, x2 = 0.1116 | 0.17
413.15 K, 1824 kPa, x2 = 0.151 | 0.218
413.15 K, 1824 kPa, x2 = 0.1917 | 0.262
413.15 K, 1824 kPa, x2 = 0.2337 | 0.304
413.15 K, 1824 kPa, x2 = 0.277 | 0.338
413.15 K, 1824 kPa, x2 = 0.3217 | 0.369
413.15 K, 1824 kPa, x2 = 0.3679 | 0.396
413.15 K, 1824 kPa, x2 = 0.4157 | 0.421
413.15 K, 1824 kPa, x2 = 0.4651 | 0.433
413.15 K, 1824 kPa, x2 = 0.5163 | 0.441
413.15 K, 1824 kPa, x2 = 0.5692 | 0.442
413.15 K, 1824 kPa, x2 = 0.6241 | 0.434
413.15 K, 1824 kPa, x2 = 0.681 | 0.415
413.15 K, 1824 kPa, x2 = 0.74 | 0.386
413.15 K, 1824 kPa, x2 = 0.8013 | 0.337
413.15 K, 1824 kPa, x2 = 0.8649 | 0.264
413.15 K, 1824 kPa, x2 = 0.9311 | 0.158
413.15 K, 1824 kPa, x2 = 0.9652 | 0.086

CCCCCCC [heptane]
Settings | vapor or sublimation pressure [kPa]
[2] | 57.09

C=CCCCCCC [oct-1-ene] + CC(=O)N(C)C
[1], 363.15 K, 1858 kPa
Settings | excess molar enthalpy [kcal/mol]
x1 = 0.03 | 0.0437
x1 = 0.0612 | 0.0906
x1 = 0.0938 | 0.135
x1 = 0.1279 | 0.176
x1 = 0.1636 | 0.213
x1 = 0.201 | 0.249
x1 = 0.2401 | 0.281
x1 = 0.2812 | 0.31
x1 = 0.3244 | 0.336
x1 = 0.3698 | 0.357
x1 = 0.4177 | 0.37
x1 = 0.4682 | 0.379
x1 = 0.5215 | 0.383
x1 = 0.5779 | 0.38
x1 = 0.6377 | 0.368
x1 = 0.7013 | 0.344
x1 = 0.7688 | 0.304
x1 = 0.8408 | 0.243
x1 = 0.9177 | 0.149

CC(=O)N(C)C [N,N-dimethylethanamide] + CCO
[1], 413.15 K, 1824 kPa
Settings | excess molar enthalpy [kcal/mol]
x2 = 0.0774 | -0.0421
x2 = 0.1505 | -0.077
x2 = 0.2528 | -0.116
x2 = 0.3471 | -0.143
x2 = 0.462 | -0.163
x2 = 0.541 | -0.168
x2 = 0.6146 | -0.166
x2 = 0.6833 | -0.154
x2 = 0.7476 | -0.138
x2 = 0.8271 | -0.109
x2 = 0.8826 | -0.0805
x2 = 0.9349 | -0.049
x2 = 0.9681 | -0.0258

ClCCl [dichloromethane] + CC(=O)N(C)C
[1], 323.15 K, 1273 kPa
Settings | excess molar enthalpy [kcal/mol]
x1 = 0.0709 | -0.101
x1 = 0.1387 | -0.188
x1 = 0.2037 | -0.265
x1 = 0.2659 | -0.328
x1 = 0.3257 | -0.379
x1 = 0.3831 | -0.412
x1 = 0.4383 | -0.438
x1 = 0.4914 | -0.454
x1 = 0.5425 | -0.458
x1 = 0.5917 | -0.456
x1 = 0.6391 | -0.44
x1 = 0.6849 | -0.417
x1 = 0.7291 | -0.386
x1 = 0.7718 | -0.348
x1 = 0.813 | -0.303
x1 = 0.8529 | -0.252
x1 = 0.8914 | -0.195
x1 = 0.9288 | -0.132
x1 = 0.965 | -0.0681

CC(=O)N(C)C [N,N-dimethylethanamide] + CO
[1], 413.15 K, 1824 kPa
Settings | excess molar enthalpy [kcal/mol]
x2 = 0.1079 | -0.0748
x2 = 0.2034 | -0.13
x2 = 0.2885 | -0.17
x2 = 0.3648 | -0.196
x2 = 0.4337 | -0.212
x2 = 0.4961 | -0.22
x2 = 0.553 | -0.221
x2 = 0.605 | -0.217
x2 = 0.6527 | -0.207
x2 = 0.6967 | -0.197
x2 = 0.7374 | -0.181
x2 = 0.7751 | -0.163
x2 = 0.8101 | -0.145
x2 = 0.8428 | -0.125
x2 = 0.8733 | -0.105
x2 = 0.9019 | -0.0848
x2 = 0.9287 | -0.0633
x2 = 0.9539 | -0.0423
x2 = 0.9776 | -0.0213

Cc1ccccc1 [toluene]
Settings | vapor or sublimation pressure [kPa]
[2] | 38.92
